Tests used:
[1] = tested on: VEGF-induced migration of HUVECs; test: VEGF-induced HUVEC migration assay; format: cell-based, human
Experimental: After 22 hours, quantitation of cell migration/invasion was achieved by post-labeling cells in the insert plates with a fluorescent dye and measuring the fluorescence of the invading/migrating cells in a fluorescent plate reader. The VEGF-induced migration was calculated by subtracting the migration that occurred when only basal medium was placed in the lower chamber of the wells.
(§1) Serum-starved HUVECs were placed, 100,000 cells per well, into the upper chambers of BD fibronectin-coated FluoroBlok 24-well insert plates. […] After 22 hours, quantitation of cell migration/invasion was achieved by post-labeling cells in the insert plates with a fluorescent dye and measuring the fluorescence of the invading/migrating cells in a fluorescent plate reader. The VEGF-induced migration was calculated for each experimental condition by subtracting the amount of migration that occurred when only basal medium was added to the lower chamber of the wells.
as §1, with “reader.” for “reader. The”, “observed in” for “that occurred when only basal medium was added to”, “absence” for “lower chamber”, “VEGF.” for “the wells.”
as §1, with “VEGF-stimulated” for “The VEGF-induced”, “derived” for “calculated for each experimental condition”, “basal migration measured in the absence” for “amount”, “VEGF.” for “migration that occurred when only basal medium was added to the lower chamber of the wells.”
Serum-starved HUVECs were placed, 100,000 cells per well, into the upper chambers of BD fibronectin-coated FluoroBlok 24-well insert plates. […] After 22 hours, quantitation of cell migration/invasion was achieved by post-labeling cells in the insert plates with a fluorescent dye and measuring the fluorescence of the invading/migrating cells in a fluorescent plate reader.

KDR [2] = biological target: T1, KDR (Homo sapiens, UniProt P35968); test: SPR analysis of dimer affinity for KDR; format: binding
Target sequence in this assay (P35968 20-1356, species assumed): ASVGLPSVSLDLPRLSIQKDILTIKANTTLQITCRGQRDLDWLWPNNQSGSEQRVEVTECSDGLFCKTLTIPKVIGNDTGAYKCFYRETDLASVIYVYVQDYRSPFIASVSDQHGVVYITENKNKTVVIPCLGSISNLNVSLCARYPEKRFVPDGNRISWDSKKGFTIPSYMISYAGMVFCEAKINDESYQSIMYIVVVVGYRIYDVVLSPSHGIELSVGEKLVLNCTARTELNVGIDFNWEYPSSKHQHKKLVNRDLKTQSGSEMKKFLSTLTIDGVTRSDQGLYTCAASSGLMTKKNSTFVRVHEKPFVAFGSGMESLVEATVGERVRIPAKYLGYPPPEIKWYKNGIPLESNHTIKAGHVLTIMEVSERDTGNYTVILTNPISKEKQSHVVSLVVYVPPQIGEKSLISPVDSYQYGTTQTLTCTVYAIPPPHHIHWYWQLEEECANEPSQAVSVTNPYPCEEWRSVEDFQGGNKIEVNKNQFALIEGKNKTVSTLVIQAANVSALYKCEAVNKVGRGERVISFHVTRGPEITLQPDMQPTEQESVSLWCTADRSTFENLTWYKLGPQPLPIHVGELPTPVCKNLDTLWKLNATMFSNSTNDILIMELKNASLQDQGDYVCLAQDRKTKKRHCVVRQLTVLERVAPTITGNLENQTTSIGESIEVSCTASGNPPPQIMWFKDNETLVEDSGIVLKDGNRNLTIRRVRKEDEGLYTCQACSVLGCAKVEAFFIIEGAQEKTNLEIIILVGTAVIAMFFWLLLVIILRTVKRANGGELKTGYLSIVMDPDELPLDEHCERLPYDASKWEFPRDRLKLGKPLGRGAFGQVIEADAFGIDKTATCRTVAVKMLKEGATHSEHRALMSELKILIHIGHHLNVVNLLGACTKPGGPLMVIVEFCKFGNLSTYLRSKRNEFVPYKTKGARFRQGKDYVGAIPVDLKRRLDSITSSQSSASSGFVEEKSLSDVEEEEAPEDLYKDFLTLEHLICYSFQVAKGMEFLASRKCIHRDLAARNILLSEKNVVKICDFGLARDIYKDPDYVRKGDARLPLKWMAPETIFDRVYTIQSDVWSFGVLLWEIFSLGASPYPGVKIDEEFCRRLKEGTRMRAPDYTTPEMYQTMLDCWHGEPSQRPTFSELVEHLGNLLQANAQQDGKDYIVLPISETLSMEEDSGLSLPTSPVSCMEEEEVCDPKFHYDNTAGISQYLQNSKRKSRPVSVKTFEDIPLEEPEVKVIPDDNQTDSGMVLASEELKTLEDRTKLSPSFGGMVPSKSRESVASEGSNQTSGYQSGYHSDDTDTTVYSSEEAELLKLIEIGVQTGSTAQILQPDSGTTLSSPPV

murine KDR-Fc = biological target: T2, murine KDR-Fc (Mus musculus, UniProt P35918); test: BIAcore kinetic analysis of binding to murine KDR-Fc
T2 construct: purchased R & D Systems (Minneapolis, Minn.) 443-KD-050
Experimental: Three densities of recombinant murine KDR-Fc were cross-linked to the dextran surface of a CM5 sensor chip by the standard amine coupling procedure (0.5 mg/mL solution diluted 1:100 or 1:40 with 50 mM acetate, pH 6.0). Flow cell 1 was activated and then blocked to serve as a reference subtraction.
All samples were injected in duplicate. For association, peptides were injected at 30 μL/min for 3 minutes using the kinject program. Following a 10 minute dissociation, any remaining peptide was stripped from the rmKDR-Fc surface with a quickinject of 50 mM NaOH+1 M NaCl for 12 s at 75 μL/min.
Sensorgrams were analyzed using the simultaneous ka/kd fitting program in the BIAevaluation software 3.1.

KDR [3] = biological target: T1, KDR; test: Inhibition of VEGF-induced KDR receptor activation (phosphorylation) in HUVECs; format: cell-based; design: host or cells: HUVEC
Target sequence in this assay (P35968 20-1356): as the sequence (P35968 20-1356, species assumed) above
Experimental: In some cases, a neutralizing anti-KDR antibody (Catalog #AF357, R&D Systems) was used as a positive control inhibitor of activation. In such cases, the antibody was pre-incubated with the test cells for 30 min at 37° C. prior to the addition of fresh medium containing both VEGF and the antibody. After incubating the dishes 5 min. in a 37° C. tissue culture incubator they were washed three times with ice-cold D-PBS containing calcium and magnesium and placed on ice without removing the last 10 mL of Delbecco's phosphate buffered saline (D-PBS). […] Another 0.5 mL of lysis buffer was used to rinse out the first dish then transferred to the second dish, which was then also scraped and dispersed. The pooled lysate from the two dishes was transferred to a 1.5 mL Eppindorf tube. The above procedure was repeated for each of the controls and test samples (KDR-binding peptides), one at a time. The lysates were stored on ice until all the samples had been processed. At this point samples were either stored at −70° C. or processed to the end of the assay without interruption.
The next day 40 μl of protein A-sepharose beads were added to the tubes that were then incubated 4 C for 1 hr. on a rotator. […] After cooling, the beads in each tube were pelleted by centrifuging and the supernatants containing the immunoprecipitated KDR were transferred to new tubes and used immediately or frozen and stored at −70 C for later analysis.
Detection of phosphorylated KDR as well as total KDR in the immunoprecipitates was carried out by immunoblot analysis.
The blots were first probed with an anti-phosphotyrosine antibody (Transduction Labs, Catalog #P11120), diluted 1:200 in 5% Blotto-TBS with 0.1% Tween 20 added for 2 hr. at room temp. […]
After 5 min of treatment, lysates were prepared from each set of dishes. KDR was immunoprecipitated from the lysates was analyzed sequentially by immunoblotting for phosphorylation with an anti-phosphotyrosine antibody, and for total KDR with an anti-KDR antibody (to control for sample loading).

PC3 cell tumors = settings: 500 microcuries of Lu-labeled D13 i.v., 18 days
Experimental: PC3 cells from ATCC, grown as recommended by the supplier, were injected subcutaneously between the shoulder blades of nude mice. When their tumors reached 100-400 mm^3, twelve mice were injected i.v. with 500 microcuries of Lu-labeled D13 and their growth monitored for an additional 18 days. Mice were sacrificed if they lost 20% or more of their body weight or their tumors exceeded 2000 mm^3. Tumor growth in the treated mice was compared with the average tumor growth in 37 untreated nude mice implanted with PC3 tumors.

[4] = tested on: VEGF-induced peritoneal vascular permeability; test: Blocking VEGF-enhanced peritoneal vascular permeability (Evan's Blue); format: in vivo, mice; settings: 20 μM with […] VEGF165 i.p.
Experimental: Male balb/c nu/nu mice were injected intraperitoneally with 2 mL vehicle (1% bovine serum albumin in 95% saline/5% DMSO), vehicle+1.2 nM VEGF165, or vehicle+1.2 nM VEGF165+20 μM D10. Immediately after, the mice were injected with Evan's Blue Dye (0.5% in saline, 4 mL/kg) i.v. via their tail veins. After 60 min, mice were sacrificed by CO2 asphyxiation and the peritoneal fluid was retrieved. After centrifuging the samples briefly, the absorbance at 590 nm was measured for each.

[5] = vs. 2700RU murine KDR-Fc surface
[6] = vs. 5000RU murine KDR-Fc surface

T2 sequence (P35918 with tags, fused parts or gaps limits assumed): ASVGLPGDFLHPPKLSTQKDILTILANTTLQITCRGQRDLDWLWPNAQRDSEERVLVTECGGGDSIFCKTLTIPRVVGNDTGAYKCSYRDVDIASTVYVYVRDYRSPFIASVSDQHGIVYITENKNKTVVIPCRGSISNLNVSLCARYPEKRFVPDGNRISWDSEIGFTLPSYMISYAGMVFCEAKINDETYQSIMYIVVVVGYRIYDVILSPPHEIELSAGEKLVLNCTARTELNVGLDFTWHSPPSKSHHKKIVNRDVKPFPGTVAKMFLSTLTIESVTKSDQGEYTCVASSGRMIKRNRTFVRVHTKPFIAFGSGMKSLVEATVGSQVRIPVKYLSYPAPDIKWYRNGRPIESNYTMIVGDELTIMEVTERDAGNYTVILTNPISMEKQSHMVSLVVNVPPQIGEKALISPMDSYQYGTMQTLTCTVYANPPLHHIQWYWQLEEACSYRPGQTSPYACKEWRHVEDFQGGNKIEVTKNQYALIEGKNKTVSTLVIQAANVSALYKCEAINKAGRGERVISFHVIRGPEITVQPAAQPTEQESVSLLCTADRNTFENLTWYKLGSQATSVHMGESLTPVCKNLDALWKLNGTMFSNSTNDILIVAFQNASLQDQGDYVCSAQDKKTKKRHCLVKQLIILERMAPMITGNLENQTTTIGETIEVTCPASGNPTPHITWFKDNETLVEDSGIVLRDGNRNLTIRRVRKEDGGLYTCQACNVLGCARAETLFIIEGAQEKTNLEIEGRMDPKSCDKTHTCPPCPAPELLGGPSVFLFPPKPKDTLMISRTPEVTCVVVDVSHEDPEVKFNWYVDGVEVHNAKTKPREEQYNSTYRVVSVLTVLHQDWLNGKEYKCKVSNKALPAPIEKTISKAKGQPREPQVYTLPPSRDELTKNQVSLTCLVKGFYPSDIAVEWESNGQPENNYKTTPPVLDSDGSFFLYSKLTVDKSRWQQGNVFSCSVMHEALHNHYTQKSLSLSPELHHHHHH

Substance: Ac-AGPTWCEDDWYYCWLFGTGGGK (SEQ ID NO:277)[(Biotin-JJK-(O═)C(CH2)3C(═O)-JJ-NH(CH2)4—(S)—CH((Ac-VCWEDSWGGEVCFRYDPGGGK (SEQ ID NO:337))-NH)CONH2]—NH2 [D1]
- VEGF-stimulated endothelial cell migration blocked ([1]; 5 nM): 84%
- VEGF-stimulated endothelial cell migration blocked ([1]; 25 nM): almost completely blocked
- Inhibition of VEGF-stimulated migration ([1]; 50 nM): completely blocked
- Effect on serum-induced migration ([1]; serum (5% FBS) used in place of VEGF): not significantly diminished
- Fold higher affinity for KDR than D2 (by SPR analysis) (KDR [2]): 10 fold
- Kd1 (murine KDR-Fc; [5]): 0.0139 s⁻¹
- ka1 (murine KDR-Fc; [5]): 794000 M⁻¹ s⁻¹
- ka2 (1/RUs) (murine KDR-Fc; [5]): 3.31E−04 1/RUs
- kd2 (murine KDR-Fc; [5]): 0.000596 s⁻¹
- Kd1 (murine KDR-Fc; [6]): 0.00888 s⁻¹
- ka1 (murine KDR-Fc; [6]): 554000 M⁻¹ s⁻¹
- ka2 (1/RUs) (murine KDR-Fc; [6]): 1.17E−04 1/RUs
- kd2 (murine KDR-Fc; [6]): 0.000457 s⁻¹
- Fold lower IC50 than D2 in the activation assay (KDR [3]): at least 100 fold
- Block of VEGF-induced phosphorylation of KDR (KDR [3]; 1 nM): More than half
- Block of VEGF-induced phosphorylation of KDR (KDR [3]; 10 nM): completely block

Substance: Ac-AGPTWCEDDWYYCWLFGTGGGK (SEQ ID NO:277){Ac-VCWEDSWGGEVCFRYDPGGGK (SEQ ID NO:337)[JJ-Glut-K(BOA)]—NH2}—NH2 [D13]
- Treated mice with significant or complete tumor growth delay (PC3 cell tumors): 6 of the 12

Substance: Ac-AGPTWCEDDWYYCWLFGTGGGK (SEQ ID NO:277){[Ac-GDSRVCWEDSWGGEVCFRYDPGGGK (SEQ ID NO:294) (JJ-Glut-NH(CH2)4—(S)—CH(PnAO6-Glut-NH) (C═O—)]—NH2}—NH2 [D10]
- Block of VEGF-increased dye leakage into the peritoneum [4]: substantially blocked
